Measured values: US20220323406A1, “METHODS AND COMPOSITIONS FOR DIFFERENTIATING STEM CELLS” (Massachusetts Institute of Technology, priority 2019, published 2022)
Read-outs that look alike come from different tables or passages of the source.

Columns and labels:
[1] = system: ENR+CD organoids (ISC to Paneth cell differentiation); assay: Secondary (validation) screen: LYZ.NS basal lysozyme secretion, 2.5-D 384-well ENR+CD organoids; format: cell-based, mouse; conditions: for Dose.FC.LYZ.NS: 6-day ENR+CD, vs ENR+CD+DMSO
[2] = system: ENR+CD organoids (ISC to Paneth cell differentiation); assay: Primary screen: basal (non-stimulated) lysozyme secretion LYZ.NS, 2.5-D 384-well ENR+CD organoid differentiation; format: cell-based, mouse
Source text: (§1) High-throughput screening.

ENR+CD organoids [3] = assay: Secondary (validation) screen: ATP (CTG) assay, 2.5-D 384-well ENR+CD organoids; format: cell-based, mouse; conditions: 6-day ENR+CD, vs ENR+CD+DMSO
[4] = system: ENR+CD organoids (ISC to Paneth cell differentiation); assay: Secondary (validation) screen: LYZ.S CCh-stimulated lysozyme secretion, 2.5-D 384-well ENR+CD organoids; format: cell-based, mouse; conditions: 6-day ENR+CD, vs ENR+CD+DMSO
ENR+CD organoids [5] = system: ENR+CD organoids
[6] = system: ENR+CD organoids (ISC to Paneth cell differentiation); assay: Primary screen: CCh-stimulated lysozyme secretion LYZ.S, 2.5-D 384-well ENR+CD organoid differentiation; format: cell-based, mouse; conditions: primary screen
Source text: as §1

ENR+CD organoids [7] = assay: Primary screen: ATP (CellTiter-Glo 3D, CTG) cell number/viability, 2.5-D 384-well ENR+CD organoids; conditions: primary screen, FC vs plate median;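 further: compounds given at plating and again on day 3 over a 6-day differentiation from ENR+CV stem-cell-enriched precursors, ATP measured on day 6, plate median as control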
[8] = system: 3D-cultured intestinal organoids (ENR or ENR+CD); assay: Lysozyme secretion assay (3D culture), normalized to ATP; format: cell-based, mouse; conditions: 6-day ENR+CD differentiation
Protocol: Lysozyme assay (3D culture). ISC-enriched organoids cultured in 3D Matrigel with ENRCV media were passaged to 48-well plate in 3D Matrigel with ENRCV. At day zero, media were replaced to ENR or ENRCD with or without indicated compounds, and media were replaced every other day. At day six, cells were washed twice with basal media and treated with carbamylcholine chloride (Sigma, C4382) for 3 hours. Media were collected and lysozyme activity was measured by EnzChek Lysozyme Assay Kit (ThermoFisher, E22013).
Lysozyme secretion assay. ISC-enriched organoids in 3D Matrigel culture were passaged to a 48- or 96-well plate and cultured with ENR or ENR+CD media containing DMSO or each drug for 6 days. DMSO- or drug-containing media were changed every other day. On day 6, cells were washed with basal media twice and treated with basal media with or without 10 μM carbamoylcholine chloride for 3 h in a CO2 incubator at 37° C. A part of the conditioned media was collected and used for lysozyme assay (Thermo, E-22013) following the manufacturer's instruction. The fluorescence was measured using excitation/emission of 485/530 nm. CellTiter-Glo 3D Reagent (Promega, G9681) was added afterward, and the cell culture plate was incubated on an orbital shaker at RT for 30 min to induce cell lysis and to stabilize the luminescent signal. The solution was replaced to a 96-well white microplate, and luminescent signals were measured by a microplate reader (infinite M200, Tecan). The standard curve was prepared by diluting recombinant ATP (Promega, P1132). For both assays, a polynomial cubic curve was fitted to a set of standard data, and each sample value was calculated on the Microsoft Excel.

[9] = primary screen, dose 0.08 uM, standard z score
[10] = primary screen, dose 0.40 uM, standard z score
[11] = primary screen, dose 2.00 uM, standard z score
[12] = primary screen, dose 10.00 uM, standard z score
[13] = primary screen; dose 0.08 uM; FC vs plate median
[14] = primary screen; dose 0.40 uM; FC vs plate median
[15] = primary screen; dose 2.00 uM; FC vs plate median
[16] = primary screen; dose 10.00 uM; FC vs plate median
[17] = dose 0.08 uM, FC vs plate median
[18] = dose 0.40 uM, FC vs plate median
[19] = dose 2.00 uM, FC vs plate median
[20] = dose 10.00 uM, FC vs plate median
[21] = primary screen, standard z score, dose 0.08 uM
[22] = primary screen, standard z score, dose 0.40 uM
[23] = primary screen, standard z score, dose 2.00 uM
[24] = primary screen, standard z score, dose 10.00 uM

CCc1c(C(=O)C(N)=O)c2c(OCC(=O)O)cccc2n1Cc1ccccc1 [Varespladib (LY315920), Varespladib, reference compound]
Dose.FC.LYZ.NS ([1]; 0.02 uM): −0.091 log2 fold change
Dose.FC.LYZ.NS ([1]; 0.04 uM): 0.015 log2 fold change
Dose.FC.LYZ.NS ([1]; 0.08 uM): 0.090 log2 fold change
Dose.FC.LYZ.NS ([1]; […]): 0.156 log2 fold change
primary screen hit call (SSMD and z-scored FC cutoffs in both LYZ assays) ([2]; LYZ.NS and LYZ.S; 0.08-10 uM, 6 days ENR+CD): sole hit in their respective pathway
Dose.FC.LYZ.NS ([2]; primary screen, dose 0.08 uM): 0.176 log2 fold change
Z.LYZ.NS (standard z score) ([2]; primary screen, dose 0.08 uM): 1.533
Dose.FC.LYZ.NS ([2]; primary screen, dose 0.40 uM): 0.197 log2 fold change
Z.LYZ.NS (standard z score) ([2]; primary screen, dose 0.40 uM): 1.719
Dose.FC.LYZ.NS ([2]; primary screen, dose 2.00 uM): 0.164 log2 fold change
Z.LYZ.NS (standard z score) ([2]; primary screen, dose 2.00 uM): 1.430
Dose.FC.LYZ.NS ([2]; primary screen, dose 10.00 uM): 0.074 log2 fold change
Z.LYZ.NS (standard z score) ([2]; primary screen, dose 10.00 uM): 0.643
Dose.FC.CTG (ENR+CD organoids [3]; 0.02 uM): 0.027 log2 fold change
Dose.FC.CTG (ENR+CD organoids [3]; 0.04 uM): 0.113 log2 fold change
Dose.FC.CTG (ENR+CD organoids [3]; 0.08 uM): 0.207 log2 fold change
Dose.FC.CTG (ENR+CD organoids [3]; […]): 0.148 log2 fold change
Dose.FC.LYZ.S ([4]; 0.02 uM): −0.138 log2 fold change
Dose.FC.LYZ.S ([4]; 0.04 uM): −0.044 log2 fold change
Dose.FC.LYZ.S ([4]; 0.08 uM): 0.065 log2 fold change
Dose.FC.LYZ.S ([4]; […]): 0.102 log2 fold change
Dose.FC.CTG (ENR+CD organoids [5]; primary screen, dose 0.08 uM): 0.428 log2 fold change
Z.CTG (standard z score) (ENR+CD organoids [5]; primary screen, dose 0.08 uM): 1.022
Dose.FC.CTG (ENR+CD organoids [5]; primary screen, dose 0.40 uM): 0.362 log2 fold change
Z.CTG (standard z score) (ENR+CD organoids [5]; primary screen, dose 0.40 uM): 0.864
Dose.FC.CTG (ENR+CD organoids [5]; primary screen, dose 2.00 uM): 0.152 log2 fold change
Z.CTG (standard z score) (ENR+CD organoids [5]; primary screen, dose 2.00 uM): 0.363
Dose.FC.CTG (ENR+CD organoids [5]; primary screen, dose 10.00 uM): 0.241 log2 fold change
Z.CTG (standard z score) (ENR+CD organoids [5]; primary screen, dose 10.00 uM): 0.575
Dose.FC.LYZ.S ([6]; dose 0.08 uM): 0.274 log2 fold change
Dose.FC.LYZ.S ([6]; dose 0.40 uM): 0.157 log2 fold change
Dose.FC.LYZ.S ([6]; dose 2.00 uM): 0.176 log2 fold change
Dose.FC.LYZ.S ([6]; dose 10.00 uM): 0.051 log2 fold change

C[C@@H]1O[C@@H](O[C@H]2C[C@@H](O)[C@]3(CO)[C@H]4[C@H](O)C[C@]5(C)[C@@H](C6=CC(=O)OC6)CC[C@]5(O)[C@@H]4CC[C@]3(O)C2)[C@H](O)[C@H](O)[C@H]1O [Ouabain]
Z.LYZ.NS [2, 9]: −0.025
Z.LYZ.NS [2, 10]: 0.315
Z.LYZ.NS [2, 11]: 0.092
Z.LYZ.NS [2, 12]: 1.433
Dose.FC.LYZ.NS [2, 13]: −0.003 log2 fold change
Dose.FC.LYZ.NS [2, 14]: 0.036 log2 fold change
Dose.FC.LYZ.NS [2, 15]: 0.011 log2 fold change
Dose.FC.LYZ.NS [2, 16]: 0.165 log2 fold change
Dose.FC.CTG (ENR+CD organoids [5]; 10 µM): −0.288 log2 fold change
Z.CTG (ENR+CD organoids [5]; [9]): 0.023
Z.CTG (ENR+CD organoids [5]; [10]): 0.290
Z.CTG (ENR+CD organoids [5]; [11]): 0.190
Z.CTG (ENR+CD organoids [5]; [12]): −0.688
Dose.FC.CTG (ENR+CD organoids [5]; [13]): 0.010 log2 fold change
Dose.FC.CTG (ENR+CD organoids [5]; [14]): 0.122 log2 fold change
Dose.FC.CTG (ENR+CD organoids [5]; [15]): 0.080 log2 fold change
Dose.FC.LYZ.S [6, 17]: 0.040 log2 fold change
Dose.FC.LYZ.S [6, 18]: 0.035 log2 fold change
Dose.FC.LYZ.S [6, 19]: 0.003 log2 fold change
Dose.FC.LYZ.S [6, 20]: 0.050 log2 fold change

C=C1C[C@@H]2[C@H](CC[C@]3(C)C(=O)CC[C@@H]23)[C@@]2(C)C=CC(=O)C=C12 [Exemestane]
Dose.FC.LYZ.NS ([2]; primary screen, dose 0.08 uM): 0.051 log2 fold change
Dose.FC.LYZ.NS ([2]; primary screen, dose 0.40 uM): 0.079 log2 fold change
Dose.FC.LYZ.NS ([2]; primary screen, dose 2.00 uM): 0.001 log2 fold change
Dose.FC.LYZ.NS ([2]; primary screen, dose 10.00 uM): 0.007 log2 fold change
Z.LYZ.NS [2, 21]: 0.447
Z.LYZ.NS [2, 22]: 0.687
Z.LYZ.NS [2, 23]: 0.012
Z.LYZ.NS [2, 24]: 0.060
Dose.FC.CTG (ENR+CD organoids [5]; primary screen, dose 0.08 uM): −0.046 log2 fold change
Dose.FC.CTG (ENR+CD organoids [5]; primary screen, dose 0.40 uM): −0.407 log2 fold change
Dose.FC.CTG (ENR+CD organoids [5]; primary screen, dose 2.00 uM): 0.170 log2 fold change
Dose.FC.CTG (ENR+CD organoids [5]; primary screen, dose 10.00 uM): −0.167 log2 fold change
Z.CTG (ENR+CD organoids [5]; [21]): −0.110
Z.CTG (ENR+CD organoids [5]; [22]): −0.973
Z.CTG (ENR+CD organoids [5]; [23]): 0.405
Z.CTG (ENR+CD organoids [5]; [24]): −0.398
Dose.FC.LYZ.S ([6]; dose 0.08 uM): 0.062 log2 fold change
Dose.FC.LYZ.S ([6]; dose 0.40 uM): 0.035 log2 fold change
Dose.FC.LYZ.S ([6]; dose 2.00 uM): 0.058 log2 fold change
Dose.FC.LYZ.S ([6]; dose 10.00 uM): −0.005 log2 fold change

Cc1cn(-c2cc(NC(=O)c3ccc(C)c(Nc4nccc(-c5cccnc5)n4)c3)cc(C(F)(F)F)c2)cn1 [Nilotinib (AMN-107), Nilotinib, reference compound]
Dose.FC.LYZ.NS ([1]; 0.10 uM): 0.092 log2 fold change
Dose.FC.LYZ.NS ([1]; 0.20 uM): 0.161 log2 fold change
Dose.FC.LYZ.NS ([1]; 0.40 uM): 0.101 log2 fold change
Dose.FC.LYZ.NS ([1]; 0.80 uM): 0.165 log2 fold change
validated doses in secondary screen (SSMD above cutoff in both LYZ assays) ([1]; LYZ.NS and LYZ.S): multiple validated doses
biological potency compared with Bosutinib ([1]; LYZ.NS and LYZ.S mean fold change): more biologically potent
Dose.FC.CTG (ENR+CD organoids [7]; dose 0.08 uM): 0.322 log2 fold change
Dose.FC.CTG (ENR+CD organoids [7]; dose 0.40 uM): 0.348 log2 fold change
Dose.FC.CTG (ENR+CD organoids [7]; dose 2.00 uM): 0.242 log2 fold change
Dose.FC.CTG (ENR+CD organoids [7]; dose 10.00 uM): −0.012 log2 fold change
Z.LYZ.NS [2, 9]: 1.703
Z.LYZ.NS [2, 10]: 1.412
Z.LYZ.NS [2, 11]: 0.742
Z.LYZ.NS [2, 12]: −0.806
Dose.FC.LYZ.NS [2, 13]: 0.196 log2 fold change
Dose.FC.LYZ.NS [2, 14]: 0.162 log2 fold change
Dose.FC.LYZ.NS [2, 15]: 0.085 log2 fold change
Dose.FC.LYZ.NS [2, 16]: −0.093 log2 fold change
Dose.FC.CTG (ENR+CD organoids [3]; 0.10 uM): 0.092 log2 fold change
Dose.FC.CTG (ENR+CD organoids [3]; 0.20 uM): 0.122 log2 fold change
Dose.FC.CTG (ENR+CD organoids [3]; 0.40 uM): 0.141 log2 fold change
Dose.FC.CTG (ENR+CD organoids [3]; 0.80 uM): 0.233 log2 fold change
Dose.FC.LYZ.S ([4]; 0.10 uM): 0.044 log2 fold change
Dose.FC.LYZ.S ([4]; 0.20 uM): 0.117 log2 fold change
Dose.FC.LYZ.S ([4]; 0.40 uM): −0.007 log2 fold change
Dose.FC.LYZ.S ([4]; 0.80 uM): 0.143 log2 fold change
Dose.FC.LYZ.S [6, 17]: 0.235 log2 fold change
Dose.FC.LYZ.S [6, 18]: 0.293 log2 fold change
Dose.FC.LYZ.S [6, 19]: 0.033 log2 fold change
Dose.FC.LYZ.S [6, 20]: −0.197 log2 fold change

Cc1ccc(C(=O)Cn2c3c(sc2=N)CCCC3)cc1 [pifithrin-α]
Paneth cell differentiation (functional LYZ secretion), compound alone [8]: neither P53 inhibitor altered Paneth cell differentiation
Paneth cell differentiation (functional LYZ secretion), in combination with KPT-330 ([8]; with KPT-330 (160 nM)): neither P53 inhibitor altered Paneth cell differentiation
